Laboratory results: ChEMBL document CHEMBL5360664, “Design, Construction, and Screening of Diversified Pyrimidine-Focused DNA-Encoded Libraries” (ACS Med Chem Lett, 2023)
pKi: −log10 of the molar value.

Columns and labels:
[1] = target: T1, Bromodomain-containing protein 4 (Homo sapiens, UniProt O60885); assay: Binding affinity to human recombinant BRD4BD1 (44 to 168 residues) expressed in Escherichia coli […] (DE3) by fluorescence polarization analysis
[2] = target: T1, Bromodomain-containing protein 4; assay: Binding affinity to human recombinant BRD4BD2 (333 to 460 residues) expressed in Escherichia coli […] (DE3) by fluorescence polarization analysis

| pKi [1] | pKi [2] | SMILES |
| --- | --- | --- |
| 6.12 | < 4.00 | CNc1cc(-c2ccc(=O)n(C)c2)nc(NCc2ccc(OC(F)(F)F)cc2)n1 |
| 6.17 | < 4.00 | CNc1cc(-c2ccc(=O)n(C)c2)nc(NCc2cccc3ccccc23)n1 |
| 6.04 | 5.84 | CNc1nc(NCc2cccc(-c3ccc(=O)n(C)c3)c2)cc(-c2ccc(=O)n(C)c2)n1 |
